Measured values taken from US12390423B2 (priority 2019, dated 2025).

Experiments:
[1] = tested on: pAkt-Ser473 and CPT-1A; assay: Immunoblotting of gastrocnemius muscle lysates of DIO mice; assay type: in vivo, C57BL/6J mice
Procedure: For all cell culture experiments, after drug treatments cells were washed with chilled phosphate-buffered saline (PBS), and lysed in chilled lysis buffer with 1× protease inhibitor cocktail (Sigma). RIPA lysis buffer (Sigma-Aldrich) was used for INS-1 (832/13) cells and muscle lysis buffer for C2C12 myotubes (20 mM HEPES, 10 mM NaCl, 1.5 mM MgCl2, 1 mM DTT, 20% glycerol, and 0.1% Triton-X100). Cells were scraped, mechanically homogenized using a syringe and centrifuged at 14,000×g for 20 min at 4° C. and the supernatants were collected. For preparation of all gastrocnemius muscle lysates, 10 mg frozen tissue (wet weight) was washed in chilled PBS, placed in a dounce homogenizer, lysed in muscle lysis buffer and centrifuged at 14,000×g for 20 min at 4° C. and the supernatant was collected. Protein content for cell and tissue lysates was measured using the BCA protein assay kit (ThermoFisher) according to manufacturer's protocol. Thirty μg protein lysates were prepared in loading buffer and immunoblotting was performed by heating lysates for 5 minutes at 95° C. and subjecting them to gel electrophoresis on 10% SDS-polyacrylamide gels at 150 V for 75 minutes. Using a semi-dry transfer apparatus (Bio-Rad) the gels were then transferred at 25V for 45 minutes to a PVDF membrane and blocked with 5% BSA (Sigma) in tris-buffered saline-tween (TBS-T) for 1 hour. […]

[2] = Intraperitoneal glucose and insulin tolerance tests (GTT, ITT) and HOMA-IR in DIO mice; assay type: in vivo, C57BL/6J mice; settings: HFD mice, AvoB 100 mg/kg b.w. twice weekly
Procedure: Intraperitoneal glucose and insulin tolerance tests (GTT and ITT) were performed 8 hours after food withdrawal. For GTT, a glucose dose of 1.5 g/kg was used for mice on both HFD and standard diet. For ITT, an insulin (Humulin, Eli Lilly, USA) dose of 1 U/kg and 0.25 U/kg was used for mice on HFD and standard diet, respectively. Blood glucose levels were determined at 0, 10, 20, 30, 60, and 90 minutes after glucose/insulin administration via tail bleed using the OneTouch Blood Ultra 2 glucose meters (LifeScan Europe, Switzerland).
The homeostasis model assessment was used to calculate the insulin resistance (HOMA-IR) index^60 using the values of fasting plasma glucose (FPG) and fasting plasma insulin (FPI) as follows: […]; HOMA-IR=FPGxFPI/22.5, with FPG expressed as mmol/L and FPI as mIU/L.

[3] = tested on: C2C12 myotubes; assay: Cellular ATP content in C2C12 myotubes; assay type: cell-based, mouse; settings: 0.5 mM palmitate 24 h, AVO 25 μM, DCA 1 mM, TRI 25 μM
Procedure: Total cellular ATP content was determined using the ATP bioluminescent assay kit (Calbiochem, 119107). Briefly, cells were seeded in white walled 96-well plates (1.2×10^4 cells/well for INS-1 and 2×10^4 cells/well for C2C12) and treated for 24 h (C2C12 cells were differentiated for 5 days prior to treatments whereas INS-1 cells were treated 24 h after seeding). After treatment, culture media was removed, and cells were lysed with nucleotide releasing buffer with gentle shaking for 5 min. ATP monitoring enzyme was then added to cell lysates and plates and luminescence was read in a Biotek Synergy HT spectrophotometer (Biotek; Winooski, VT).

## avocatin B [AvoB]
[1]; AvoB-treated-HFD mice vs HFD-control mice
  Phosphorylation of AKT Ser473 in gastrocnemius muscle: increased phosphorylation of AKTSer473
[1]; HFD-control mice compared to AVO-treated-HFD mice
  CPT-1A protein level in gastrocnemius muscle: higher protein levels of CPT-1A in gastrocnemius muscle compared to AVO-treated-HFD mice
[2]
  HOMA-IR index: comparable to lean, STD mice
[2]; vs HFD-control, i.p. glucose 1.5 g/kg
  Glucose tolerance (GTT, AUC): significantly improved glucose tolerance
[2]; vs HFD-control, i.p. insulin
  Whole body insulin sensitivity (ITT, AUC): greater insulin sensitivity
[3]
  Total cellular ATP content: restored cellular ATP content to that of control cells
